According to patent US7169568B2, “Method for screening molecules that exert a neurotrophic effect through activation of neurotrophin receptors” (New York University, priority 2000, dated 2007):

Legend:
[1] = test system: TrkA receptors; assay: TrkA receptor tyrosine phosphorylation in PC12 (615) cells (anti-pan-Trk immunoprecipitation, PY99 anti-phosphotyrosine immunoblot); assay type: cell-based
Method: Stably transfected PC12 cells expressing high levels of TrkA (615) were treated with the indicated compounds for 2 hours. The cells were subsequently harvested in lysis buffer as described in the Materials and Methods of Example 1. Lysates were immunoprecipitated with anti-pan Trk rabbit antiserum. Immunocomplexes were analyzed by immunoblotting with anti-phosphotyrosine antibody (PY99).
In FIG. 2A, different concentrations of adenosine were administered to PC12615 cells for 2 hours or NGF (1 ng/ ml) for 10 min. Cells were also treated with CGS21680 at the indicated dose for 2 hours. In FIG. 2B, PC12 cells (615) were treated with adenosine (10 μM) for various times or with 5 ng/ml NGF for 10 min. Phosphorylated TrkA receptors were detected by immunoblot analysis using PY99 anti-phosphotyrosine antibodies. The amount of Trk receptors in each condition was verified by immunoblotting.
In FIG. 3A, PC12 cells (615) were treated with the A2A agonist CGS 21680 (10 nM) and an A1 agonist CPA (10 nM) for 2 hr. ZM 241385 (10 nM), an A2A antagonist, was incubated with the cells for 15 min prior to treatment with adenosine (10 μM) for 2 hours. In FIG. 3B, PC12 cells (615) were incubated with the indicated concentrations of PP1, a Src family kinase inhibitor (Hanke et al, 1996), for 30 min, and then treated with adenosine (10 μM) for 2 hours. Activation of TrkA was assessed by immunoprecipitation and immunoblot analysis using PY99 anti-phosphotyrosine antibody.
In FIG. 7A, different concentrations of PACAP27 were administered to PC12 (615) cells for 2 hours or NGF (5 ng/ml) for 10 min. […] Phosphorylated TrkA receptors were detected by immunoblot analysis using PY99 anti-phosphotyrosine antibodies. The level of Trk receptors for each condition was verified by immunoblotting with anti-Trk antibodies.
(§1) Immunoprotection and Immunoblotting. PC12 cells or PC12-615 cells (Hempstead et al, 1992), were maintained in Dulbecco's Modified Eagle's Medium (DMEM) containing 10% fetal bovine serum (FBS) supplemented with 100 units/ml penicillin, 100 μg/ml streptomycin, and 2 mM glutamine plus 200 μg/ml G418. Cells were placed in low serum medium (1% FBS, 0.5% horse serum) overnight prior to experiments. Cell lysates from PC12, 615 cells, or hippocampal cells were incubated in lysis buffer (1% NP40) for 4 hours to overnight at 4° C. with anti-pan-Trk polyclonal antibody, followed by incubation with protein A-Sepharose beads. Equivalent amounts of protein were analyzed for each condition. The beads' were washed five times with lysis buffer and the immune complexes were boiled in SDS-sample buffer and loaded on sodium dodecyl sulfate-polyacrylamide electrophoresis (SDS-PAGE) gels for immunoblot analysis. The immunoreactive protein bands were detected by ECL reagents based upon enhanced chemiluminescence procedure (Amersham Pharmacia).
Immunoprecipitated and Immunoblotting. PC12 (615) cells were maintained in DMEM containing 10% FBS supplemented with 100 units/ml penicillin, 100 μg/ml streptomycin, and 2 mM glutamine plus 200 μg/ml G418. Cells were placed in serum free medium overnight before experiments. Cell lysates from PC12(615) cells, or basal forebrain cells were incubated in lysis buffer (1% Nonidet P-40) for 4 hrs to overnight at 4° C. with anti-pan-Trk polyclonal antibody followed by incubation with protein A-Sepharose beads. Equivalent amounts of protein were analyzed for each condition.

[2] = test system: Akt; assay: Akt activation in PC12 cells (anti-phospho Akt immunoblot); assay type: cell-based
Method: as §1, with “PC12 cells (615) were treated with adenosine (10 μM) for various times in the presence or absence of […] (100 nM) or LY294002 (10 μM). The cells were subsequently harvested in lysis buffer; lysates and immunoprecipitated samples were subsequently immunoblotted with anti-phospho MAP kinase, anti-phospho Akt, and anti-phosphotyrosine. Reprobing with anti-MAP kinase and anti-pan-Trk antibodies was carried out to ensure equal protein loading. To assess the activity of Akt, endogenous Akt can be immunoprecipitated from lysates with anti-Akt and the proteins assayed in Western blots with anti-phospho-Akt antibodies. Use of the anti-Akt antibody versus the anti-phospho-Akt antibody on lysates can give a comparative assessment of the relative level of the enzyme and extent of activation (Kim et al., 2001). […]” for “Immunoprotection”

[3] = test system: TrkB receptors; assay: Trk receptor phosphorylation in primary E17 hippocampal neurons (immunoprecipitation, anti-phosphotyrosine Western blot); assay type: cell-based, rat; settings: 10 nM, two hours
Method: FIGS. 4A and 4B show Western blots on adenosine activation of Trk receptors in hippocampal neurons. Primary cultures of E17 hippocampal neurons were prepared as described in the Materials and Methods of Example 1 and treated with (FIG. 4A) CGS 21680 (10 nM) or BDNF (1 ng/ml) for various times and (FIG. 4B) either adenosine (10 μM), CGS 21680 (10 nM), CPA (10 nM) or BDNF (10 ng/ml) for 2 hr. Activation of TrkA receptors was assessed by immunoprecipitation and Western blotting with anti-phosphotyrosine antibody.
as §1
Hippocampal Cell Cultures. Dissociated primary cultures of hippocampal neurons from embryonic day 17 (E17) rats were prepared from timed-pregnant Sprague-Dawley rats as described previously (Aibel et al, 1998). Fetuses were removed under sterile conditions and kept in PBS on ice for microscopic dissection of the hippocampus. The meninges were removed and the tissue was placed in Neurobasal media (Gibco BRL). […] Cells were counted and then plated on culture wells coated with 0.01 mg/ml poly-D-lysine overnight. […]

[4] = test system: hippocampal neurons; assay: Cell death assay (LDH release), hippocampal neurons after B27 withdrawal; assay type: cell-based, rat; settings: 100 nM, with CGS 21680 (10 nM) upon B27 withdrawal
Method: (§2) . In FIG. 6A, NGF-differentiated PC12 cells were prepared and then NGF and serum were withdrawn for 48 hours as described in the Materials and Methods section of Example 1. Upon NGF withdrawal, various concentrations of CGS 21680 (CGS) were added to the media. CON =No Addition. […] In FIG. 6B, hippocampal neurons were prepared and B27 was withdrawn for 48 hrs as described in the Materials and Methods section of Example 1. Upon B27 withdrawal, various concentrations of CGS 21680 (CGS) were added to the media. […] All LDH levels were quantitated and % cell death calculated as described in the Materials and Methods section of Example 1. All bars depict mean+SEM from three independent experiments.
Hippocampal Cell Cultures. Dissociated primary cultures of hippocampal neurons from embryonic day 17 (E17) rats were prepared from timed-pregnant Sprague-Dawley rats as described previously (Aibel et al, 1998). Fetuses were removed under sterile conditions and kept in PBS on ice for microscopic dissection of the hippocampus. The meninges were removed and the tissue was placed in Neurobasal media (Gibco BRL). The tissue was briefly minced with fine forceps and then triturated with a fire polished pasteur pipet. Cells were counted and then plated on culture wells coated with 0.01 mg/ml poly-D-lysine overnight. Hippocampal cells were maintained in Neurobasal media, containing B27 supplement and L-glutamine (0.5 mM). Experiments were conducted 7–10 days after plating.
Hippocampal neurons were maintained in Neurobasal media containing B27 supplement and 0.5 mM L-glutamine for 10 days. B27 was then removed, and adenosine agonists or BDNF (100 ng/ml) was added to the media. MK-801 (1 μM) was added to all conditions, to decrease the contribution of NMDA-mediated cell death. After 48 hrs, cell death was assessed by measurement of LDH released into media.

[5] = test system: NGF-differentiated PC12 cells; assay: Cell death assay (LDH release), NGF-differentiated PC12 cells after NGF and serum withdrawal; assay type: cell-based
Method: as §2, with “FIGS. 6A and 6B show graphs on the trophic effects of adenosine in PC12 and hippocampal cells deprived of neurotrophins. In” for “. In”
Cell Death Assay. PC12 cells were differentiated in Dulbecco's modified Eagle's medium (DMEM), supplemented with 0.33% fetal bovine serum, 0.67% heat-inactivated horse serum, 2 mM L-glutamine and NGF (50 ng/ml) for 7 days. Serum and NGF were then removed, and adenosine agonists or growth factors added to the media. After 48 hrs, cell death was quantified by measuring lactate dehydrogenase (LDH) released from injured cells into the media using the Cytox 96 Cytotoxicity Assay Kit (Promega, Madison, Wis.). LDH values were normalized by subtracting the LDH released by cells maintained in NGF (50 ng/ml) and scaling to a full kill (=100%) reference induced by 5 min treatment with 1% Triton, an exposure that consistently killed all PC12 cells.

[6] = test system: MAP kinase; assay: MAP kinase activation in PC12 cells (anti-phospho MAP kinase immunoblot); assay type: cell-based; settings: K252a at concentrations that block TrkA signaling (100 nM)
Method: as §1, with “PC12 cells (615) were treated with adenosine (10 μM) for various times in the presence or absence of […] (100 nM) or LY294002 (10 μM). The cells were subsequently harvested in lysis buffer; lysates and immunoprecipitated samples were subsequently immunoblotted with anti-phospho MAP kinase, anti-phospho Akt, and anti-phosphotyrosine. Reprobing with anti-MAP kinase and anti-pan-Trk antibodies was carried out to ensure equal protein loading. Immunoprotection” for “Immunoprotection”, “The beads' were washed five times with lysis buffer and the immune complexes were boiled in SDS-sample buffer and loaded on sodium dodecyl sulfate-polyacrylamide electrophoresis (SDS-PAGE) gels for immunoblot analysis.” left out

## Nc1nc(NCCc2ccc(O)cc2)nc2nc(-c3ccco3)nn12 [ZM 241385, 4-[2-[7-amino-2-(2-furyl)-1,2,4-triazolo[1,5-a](1,3,5)triazin-5-ylamino]ethyl]phenol]
[1]; 10 nM, 15 min prior to adenosine (10 μM) for 2 hours
  Effect on adenosine-induced phosphorylation of TrkA receptors: antagonized the effects of adenosine

## CN1CCc2cccc3c2[C@H]1Cc1ccc(O)c(O)c1-3 [apomorphine]
[1]; PC12 (615) cells, ligand for 2 hours, adenosine 10 μM
  Activation of TrkA receptors (tyrosine phosphorylation): not observed

## Cc1ccc(-c2nn(C(C)(C)C)c3ncnc(N)c23)cc1 [PP1]
[1]; 1 μM, 30 min, then adenosine (10 μM) for 2 hours
  Effect on level of tyrosine phosphorylated TrkA receptors elicited by adenosine: marked decrease
[1]; increasing concentrations, then adenosine (10 μM) for 2 hours
  Effect on tyrosine phosphorylated TrkA receptors elicited by adenosine, concentration dependence: progressively stronger inhibition

## Pituitary adenylate cyclase activating polypeptide [PACAP]
[2]; PC12 cells, PACAP treatment
  Akt activity: stimulated
[1]; PC12 (615) cells, 2 hours
  Concentration range of the effect upon TrkA receptor activity: low nanomolar concentration range
[1]; PC12 (615) cells, PACAP27 1 nM
  Time required for increase in TrkA activation: 2 h

## OC[C@H]1O[C@@H](n2cnc3c(NC4CCCC4)ncnc32)[C@H](O)[C@@H]1O [CPA, N(6)-cyclopentyladenosine]
[3]
  Phosphorylation of TrkB receptors: did not activate TrkB receptors
[1]; PC12 (615) cells, 10 nM, 2 hr
  Increase in phosphorylated TrkA receptors: no effect

## COC(=O)[C@@]1(O)C[C@H]2O[C@]1(C)n1c3ccccc3c3c4c(c5c6ccccc6n2c5c31)C(=O)NC4 [K252a]
[2]; pretreatment 100 nM
  Effect on Akt activation by adenosine: eliminated
[4]
  Effect on survival action of CGS 21680: K-252a sensitive
[5]; 100 nM, with CGS 21680 (10 nM) upon NGF withdrawal
  Effect on survival effect of CGS 21680: eliminated the positive effects of CGS 21680
[5]; 100 nM, with NGF (50 ng/ml)
  Effect on survival effects of NGF: reversed the survival effects of NGF
[6]
  Effect on MAP kinase activity induced by adenosine: not altered

## COc1cccc(-c2cc(=O)c3ccccc3o2)c1N [PD98059]
[5]; 25 μM, with CGS 21680 (10 nM)
  Effect on survival imparted by CGS 21680: not found to have any effect
